Numbers after ± are expanded uncertainties.
How the values were obtained:
[1] = xn = mol fraction of the nth substance listed; details: 101 kPa, Liquid, x2 = 0; for mass density: Vibrating tube method; for speed of sound: sound velocity cell
[2] = Liquid; for mass density: Vibrating tube method; for speed of sound: sound velocity cell

## CCO [ethanol] + CC(=O)[O-].[NH3+]CCO
[1]; 288.15 K
  mass density: 793.828 ± 0.14 kg/m3
  speed of sound: 1177.8 ± 1.1 m/s
[1]; 290.65 K
  mass density: 791.692 ± 0.14 kg/m3
  speed of sound: 1169.2 ± 1.1 m/s
[1]; 293.15 K
  mass density: 789.553 ± 0.14 kg/m3
  speed of sound: 1160.6 ± 1.1 m/s
[1]; 295.65 K
  mass density: 787.411 ± 0.14 kg/m3
  speed of sound: 1152 ± 1.1 m/s
[1]; 298.15 K
  mass density: 785.261 ± 0.14 kg/m3
  speed of sound: 1143.5 ± 1.1 m/s
[1]; 300.65 K
  mass density: 783.106 ± 0.14 kg/m3
  speed of sound: 1135 ± 1.1 m/s
[1]; 303.15 K
  mass density: 780.944 ± 0.14 kg/m3
  speed of sound: 1126.5 ± 1.1 m/s
[1]; 305.65 K
  mass density: 778.773 ± 0.14 kg/m3
  speed of sound: 1118.1 ± 1.1 m/s
[1]; 308.15 K
  mass density: 776.593 ± 0.14 kg/m3
  speed of sound: 1109.7 ± 1.1 m/s
[1]; 310.65 K
  mass density: 774.405 ± 0.14 kg/m3
  speed of sound: 1101.2 ± 1.1 m/s
[1]; 313.15 K
  mass density: 772.204 ± 0.14 kg/m3
  speed of sound: 1092.8 ± 1.1 m/s
[1]; 315.65 K
  mass density: 769.995 ± 0.14 kg/m3
  speed of sound: 1084.5 ± 1.1 m/s
[1]; 318.15 K
  mass density: 767.77 ± 0.15 kg/m3
  speed of sound: 1076.2 ± 1.1 m/s
[1]; 320.65 K
  mass density: 765.534 ± 0.15 kg/m3
  speed of sound: 1067.9 ± 1.1 m/s
[1]; 323.15 K
  mass density: 763.296 ± 0.15 kg/m3
  speed of sound: 1059.6 ± 1.1 m/s

## O [water] + CC(=O)[O-].[NH3+]CCO
[1]; 290.65 K
  mass density: 998.68 ± 0.068 kg/m3
  speed of sound: 1474.7 ± 1 m/s
[1]; 295.65 K
  mass density: 997.65 ± 0.068 kg/m3
  speed of sound: 1489.9 ± 1 m/s
[1]; 300.65 K
  mass density: 996.37 ± 0.069 kg/m3
  speed of sound: 1503.4 ± 1 m/s
[1]; 305.65 K
  mass density: 994.86 ± 0.069 kg/m3
  speed of sound: 1515.1 ± 1 m/s
[1]; 310.65 K
  mass density: 993.15 ± 0.07 kg/m3
  speed of sound: 1525 ± 1 m/s
[1]; 313.15 K
  speed of sound: 1529.3 ± 1 m/s
[1]; 315.15 K
  mass density: 991.24 ± 0.07 kg/m3
[1]; 315.65 K
  speed of sound: 1533.2 ± 1 m/s
[1]; 318.15 K
  speed of sound: 1536.6 ± 1 m/s
[1]; 320.65 K
  mass density: 989.15 ± 0.071 kg/m3
  speed of sound: 1539.6 ± 1 m/s
[1]; 323.15 K
  mass density: 988.04 ± 0.071 kg/m3
  speed of sound: 1542.1 ± 1 m/s

## CO [methanol] + CC(=O)[O-].[NH3+]CCO
[1]; 288.15 K
  mass density: 796.694 ± 0.14 kg/m3
  speed of sound: 1136.3 ± 1.1 m/s
[1]; 290.65 K
  mass density: 793.768 ± 0.14 kg/m3
  speed of sound: 1127.7 ± 1.1 m/s
[1]; 293.15 K
  mass density: 791.418 ± 0.14 kg/m3
  speed of sound: 1119.5 ± 1.1 m/s
[1]; 295.65 K
  mass density: 789.066 ± 0.14 kg/m3
  speed of sound: 1111.3 ± 1.1 m/s
[1]; 298.15 K
  mass density: 786.71 ± 0.14 kg/m3
  speed of sound: 1103 ± 1.1 m/s
[1]; 300.65 K
  mass density: 784.349 ± 0.14 kg/m3
  speed of sound: 1094.7 ± 1.1 m/s
[1]; 303.15 K
  mass density: 781.983 ± 0.14 kg/m3
  speed of sound: 1086.5 ± 1.1 m/s
[1]; 305.65 K
  mass density: 779.612 ± 0.14 kg/m3
  speed of sound: 1078.3 ± 1.1 m/s
[1]; 308.15 K
  mass density: 777.234 ± 0.14 kg/m3
  speed of sound: 1070.2 ± 1.1 m/s
[1]; 310.65 K
  mass density: 774.851 ± 0.14 kg/m3
  speed of sound: 1062.1 ± 1.1 m/s
[1]; 313.15 K
  mass density: 772.458 ± 0.14 kg/m3
  speed of sound: 1054 ± 1.1 m/s
[1]; 315.65 K
  mass density: 770.058 ± 0.15 kg/m3
  speed of sound: 1045.9 ± 1.1 m/s
[1]; 318.15 K
  mass density: 767.647 ± 0.15 kg/m3
  speed of sound: 1037.9 ± 1.1 m/s
[1]; 320.65 K
  mass density: 765.229 ± 0.15 kg/m3
  speed of sound: 1029.9 ± 1.1 m/s
[1]; 323.15 K
  mass density: 762.809 ± 0.15 kg/m3
  speed of sound: 1022 ± 1.1 m/s

## CCO [ethanol]
[2]; 288.15 K, 101 kPa
  mass density: 793.828 ± 0.14 kg/m3
  speed of sound: 1177.8 ± 1.1 m/s
[2]; 290.65 K, 101 kPa
  mass density: 791.692 ± 0.14 kg/m3
  speed of sound: 1169.2 ± 1.1 m/s
[2]; 293.15 K, 101 kPa
  mass density: 789.553 ± 0.14 kg/m3
  speed of sound: 1160.6 ± 1.1 m/s
[2]; 295.65 K, 101 kPa
  mass density: 787.411 ± 0.14 kg/m3
  speed of sound: 1152 ± 1.1 m/s
[2]; 298.15 K, 101 kPa
  mass density: 785.261 ± 0.14 kg/m3
  speed of sound: 1143.5 ± 1.1 m/s
[2]; 300.65 K, 101 kPa
  mass density: 783.106 ± 0.14 kg/m3
  speed of sound: 1135 ± 1.1 m/s
[2]; 303.15 K, 101 kPa
  mass density: 780.944 ± 0.14 kg/m3
  speed of sound: 1126.5 ± 1.1 m/s
[2]; 305.65 K, 101 kPa
  mass density: 778.773 ± 0.14 kg/m3
  speed of sound: 1118.1 ± 1.1 m/s
[2]; 308.15 K, 101 kPa
  mass density: 776.593 ± 0.14 kg/m3
  speed of sound: 1109.7 ± 1.1 m/s
[2]; 310.65 K, 101 kPa
  mass density: 774.405 ± 0.14 kg/m3
  speed of sound: 1101.2 ± 1.1 m/s
[2]; 313.15 K, 101 kPa
  mass density: 772.204 ± 0.14 kg/m3
  speed of sound: 1092.8 ± 1.1 m/s
[2]; 315.65 K, 101 kPa
  mass density: 769.995 ± 0.14 kg/m3
  speed of sound: 1084.5 ± 1.1 m/s
[2]; 318.15 K, 101 kPa
  mass density: 767.77 ± 0.15 kg/m3
  speed of sound: 1076.2 ± 1.1 m/s
[2]; 320.65 K, 101 kPa
  mass density: 765.534 ± 0.15 kg/m3
  speed of sound: 1067.9 ± 1.1 m/s
[2]; 323.15 K, 101 kPa
  mass density: 763.296 ± 0.15 kg/m3
  speed of sound: 1059.6 ± 1.1 m/s

## CO [methanol]
[2]; 288.15 K, 101 kPa
  mass density: 796.694 ± 0.14 kg/m3
  speed of sound: 1136.3 ± 1.1 m/s
[2]; 290.65 K, 101 kPa
  mass density: 793.768 ± 0.14 kg/m3
  speed of sound: 1127.7 ± 1.1 m/s
[2]; 293.15 K, 101 kPa
  mass density: 791.418 ± 0.14 kg/m3
  speed of sound: 1119.5 ± 1.1 m/s
[2]; 295.65 K, 101 kPa
  mass density: 789.066 ± 0.14 kg/m3
  speed of sound: 1111.3 ± 1.1 m/s
[2]; 298.15 K, 101 kPa
  mass density: 786.71 ± 0.14 kg/m3
  speed of sound: 1103 ± 1.1 m/s
[2]; 300.65 K, 101 kPa
  mass density: 784.349 ± 0.14 kg/m3
  speed of sound: 1094.7 ± 1.1 m/s
[2]; 303.15 K, 101 kPa
  mass density: 781.983 ± 0.14 kg/m3
  speed of sound: 1086.5 ± 1.1 m/s
[2]; 305.65 K, 101 kPa
  mass density: 779.612 ± 0.14 kg/m3
  speed of sound: 1078.3 ± 1.1 m/s
[2]; 308.15 K, 101 kPa
  mass density: 777.234 ± 0.14 kg/m3
  speed of sound: 1070.2 ± 1.1 m/s
[2]; 310.65 K, 101 kPa
  mass density: 774.851 ± 0.14 kg/m3
  speed of sound: 1062.1 ± 1.1 m/s
[2]; 313.15 K, 101 kPa
  mass density: 772.458 ± 0.14 kg/m3
  speed of sound: 1054 ± 1.1 m/s
[2]; 315.65 K, 101 kPa
  mass density: 770.058 ± 0.15 kg/m3
  speed of sound: 1045.9 ± 1.1 m/s
[2]; 318.15 K, 101 kPa
  mass density: 767.647 ± 0.15 kg/m3
  speed of sound: 1037.9 ± 1.1 m/s
[2]; 320.65 K, 101 kPa
  mass density: 765.229 ± 0.15 kg/m3
  speed of sound: 1029.9 ± 1.1 m/s
[2]; 323.15 K, 101 kPa
  mass density: 762.809 ± 0.15 kg/m3
  speed of sound: 1022 ± 1.1 m/s

## CC(=O)[O-].[NH3+]CCO [2-hydroxyethylammonium acetate]
[2]; 288.15 K, 101 kPa
  mass density: 1154.7 ± 2.6 kg/m3
  speed of sound: 1817.2 ± 3.2 m/s
[2]; 290.65 K, 101 kPa
  mass density: 1153.28 ± 2.6 kg/m3
  speed of sound: 1810 ± 3.2 m/s
[2]; 293.15 K, 101 kPa
  mass density: 1151.87 ± 2.5 kg/m3
  speed of sound: 1803.2 ± 3.2 m/s
[2]; 295.65 K, 101 kPa
  mass density: 1150.45 ± 2.5 kg/m3
  speed of sound: 1796.8 ± 3.2 m/s
[2]; 298.15 K, 101 kPa
  speed of sound: 1790.7 ± 3.2 m/s
[2]; 298.15 K, 101.33 kPa
  mass density: 1149.04 ± 2.5 kg/m3
  speed of sound: 1790.7 ± 3 m/s
[2]; 300.65 K, 101 kPa
  mass density: 1147.63 ± 2.5 kg/m3
  speed of sound: 1784.8 ± 3.2 m/s
[2]; 303.15 K, 101 kPa
  mass density: 1146.22 ± 2.5 kg/m3
  speed of sound: 1779 ± 3.2 m/s
[2]; 305.65 K, 101 kPa
  mass density: 1144.8 ± 2.5 kg/m3
  speed of sound: 1773.4 ± 3.2 m/s
[2]; 308.15 K, 101 kPa
  mass density: 1143.39 ± 2.5 kg/m3
  speed of sound: 1767.9 ± 3.2 m/s
[2]; 310.65 K, 101 kPa
  mass density: 1141.96 ± 2.5 kg/m3
  speed of sound: 1762.5 ± 3.2 m/s
[2]; 313.15 K, 101 kPa
  mass density: 1140.55 ± 2.5 kg/m3
  speed of sound: 1757.2 ± 3.2 m/s
[2]; 315.15 K, 101 kPa
  mass density: 1139.18 ± 2.5 kg/m3
[2]; 315.65 K, 101 kPa
  mass density: 1139.18 ± 2.5 kg/m3
  speed of sound: 1751.9 ± 3.2 m/s
[2]; 318.15 K, 101 kPa
  mass density: 1137.82 ± 2.5 kg/m3
  speed of sound: 1746.5 ± 3.2 m/s
[2]; 320.65 K, 101 kPa
  mass density: 1136.45 ± 2.5 kg/m3
  speed of sound: 1741.3 ± 3.2 m/s
[2]; 323.15 K, 101 kPa
  mass density: 1135.08 ± 2.5 kg/m3
  speed of sound: 1736 ± 3.2 m/s

## O [water]
[2]; 290.65 K, 101 kPa
  mass density: 998.68 ± 0.068 kg/m3
  speed of sound: 1474.7 ± 1 m/s
[2]; 295.65 K, 101 kPa
  mass density: 997.65 ± 0.068 kg/m3
  speed of sound: 1489.9 ± 1 m/s
[2]; 300.65 K, 101 kPa
  mass density: 996.37 ± 0.069 kg/m3
  speed of sound: 1503.4 ± 1 m/s
[2]; 305.65 K, 101 kPa
  mass density: 994.86 ± 0.069 kg/m3
  speed of sound: 1515.1 ± 1 m/s
[2]; 310.65 K, 101 kPa
  mass density: 993.15 ± 0.07 kg/m3
  speed of sound: 1525 ± 1 m/s
[2]; 313.15 K, 101 kPa
  speed of sound: 1529.3 ± 1 m/s
[2]; 315.15 K, 101 kPa
  mass density: 991.24 ± 0.07 kg/m3
[2]; 315.65 K, 101 kPa
  speed of sound: 1533.2 ± 1 m/s
[2]; 318.15 K, 101 kPa
  speed of sound: 1536.6 ± 1 m/s
[2]; 320.65 K, 101 kPa
  mass density: 989.15 ± 0.071 kg/m3
  speed of sound: 1539.6 ± 1 m/s
[2]; 323.15 K, 101 kPa
  mass density: 988.04 ± 0.071 kg/m3
  speed of sound: 1542.1 ± 1 m/s

— the NIST ThermoML archive (doi:10.1016/j.jct.2011.01.014)
